Data taken from patent US10945986B2, “Treatment for ischemic stroke” (CHS Pharma, Inc., priority 2012, dated 2021).

B1: granulocyte colony-stimulating factor (protein, UniProt P09919 31-207, looked up)
Granulocyte …: TPLGPASSLPQSFLLKCLEQVRKIQGDGAALQEKLVSECATYKLCHPEELVLLGHSLGIPWAPLSSCPSQALQLAGCLSQLHSGLFLYQGLLQALEGISPELGPTLDTLQLDVADFATTIWQQMEELGMAPALQPTQGAMPAFASAFQRRAGGVLVASHLQSFLEVSYRVLRHLAQP
notes: granulocyte colony-stimulating factor; a stem cell enhancer and facilitator

What was measured:
[1] = tested on: C/EBP homologues protein (CHOP); assay: CHOP expression (Western blot) in primary neuronal cultures subjected to hypoxia and reoxygenation; format: cell-based; settings: 24 hours hypoxia, 16 hours reoxygenation; densitometry vs actin
Experimental: Primary neuronal cultures were subjected to 24 hours of hypoxia followed by 16 hours of reoxygenation and cells were harvested for protein extraction and Western blot analysis for expression of CHOP. Levels of CHOP were quantified by densitometry and expressed as a percentage of the signal for actin control samples.

P-IRE-1 = P-IRE-1 expression (Western blot) in primary neuronal cultures subjected to hypoxia and reoxygenation; format: cell-based; settings: 24 hours hypoxia, 16 hours reoxygenation; densitometry vs actin
Experimental: Primary neuronal cultures were subjected to 24 hours of hypoxia followed by 16 hours of reoxygenation and cells were harvested for protein extraction and Western blot analysis for expression of P-IRE-1. Levels of P-IRE-1 were quantified by densitometry and expressed as a percentage of the signal for actin control samples.

Bcl-2 = assay: Western blot of Bcl-2 in core and penumbra, MCAO model; format: in vivo, rat
Hsp27 = assay: Western blot of Hsp27 in core and penumbra, MCAO model; format: in vivo, rat; settings: DETC-MeSO treatment prior to MCAO surgery and reperfusion, N=8
Text: Western blotting on the core and the penumbra tissue of both hemispheres was employed for analysis of the expression of key proteins involved in apoptosis (Bcl-2), and cell protection and survival e.g., two heat shock proteins (HSP27, HSP70) and AKT.

[2] = tested on: middle cerebral artery occlusion (MCAO) stroke-induced brain infarction; assay: MCAO rat stroke model, infarct size by TTC staining; format: in vivo, Sprague-Dawley rats; settings: for reduction of ischemia-induced brain infarct size: DETC-MeSO 5.6 mg/kg i.p. 24 hr post MCAO/reperfusion, 8 animals; for effect of individual drug on ischemia-induced infarct size: individual drug at 1/10 dose (G-CSF 10 ug/kg; DETC-MeSO 0.56 mg/kg; sulindac 0.2 mg/kg), 24 hrs post MCAO
pAKT = settings: rat, in vivo
JNK = settings: rat, in vivo
CHOP = assay: Western blot of CHOP, MCAO model; format: in vivo, rat; settings: G-CSF, Western blotting

Molecule	CHOP expression of hypoxia cells compared to DETC-MeSO-treated cells subjected to hypoxia [1]	P-IRE-1 expression of hypoxia cells compared to DETC-MeSO-treated cells subjected to hypoxia (P-IRE-1)	Bcl-2 expression vs non-treated control animals (Bcl-2; DETC-MeSO treatment prior to MCAO surgery and reperfusion, core and penumbra, N=8)	Hsp-27 expression vs non-treated control animals (Hsp27)	infarct size as % of the area of the infarcts in the no-drug control group ([2]; 2 injections: 60 minutes before ischemia and 20 minutes before start of reperfusion, TTC) [%]	reduction of ischemia-induced brain infarct size ([2]; daily, 4 days)	reduction of ischemia-induced brain infarct size ([2]; daily, 8 days)	brain infarct size (morphological observation, TTC) ([2]; DETC-MeSO 5.6 mg/kg intraperitoneal 24 hr post MCAO/reperfusion, daily, both 4 and 8 days)	brain infarct size ([2]; DETC-MeSO 5.6 mg/kg one hour before MCAO surgery and reperfusion, continued 4 days, sacrificed 4th day, 1% TTC)	decrease in infarct size compared with the no-drug treated group ([2]; DETC-MeSO 5.6 mg/kg pre-MCAO, 4 days, at 6 mm from frontal pole, N=21) [%]	brain infarct size compared to the control group ([2]; DETC-MeSO 1-7 mg, two injections (1 hr before MCAO surgery, day 11), sacrificed 11th day, 1% TTC)	effect of individual drug on ischemia-induced infarct size ([2]; 8 days)	pAKT expression (pro-survival/anti-apoptotic marker) (pAKT)	Bcl-2 expression (pro-survival/anti-apoptotic marker) (Bcl-2; rat, in vivo)	JNK expression (pro-survival/anti-apoptotic marker) (JNK)	ischemia-induced brain infarct size vs non-treated control animals ([2]; G-CSF 50 μg/kg, 24 hours post ischemia)	infarct volume vs control group ([2]; G-CSF 50 μg/kg, 24 hours post ischemia, n=5)	percentage of infarct volume in entire brain vs control group ([2]; G-CSF 50 μg/kg, 24 hours post ischemia, n=5, P<0.05)	CHOP expression (pro-apoptotic protein) (CHOP)
CCN(CC)C(=O)[S+](C)[O-] (stereo not drawn) [DETC-MeSO, S-methyl-N, N-diethylthiolcarbamate sulfoxide]	about double	3-3.5 times	significantly increased	significantly increased	29	64+/−11%	61+/−7%	significantly reduced	significantly reduced	50	significantly reduced	no significant effect							
B1												no significant effect	up-regulation	up-regulation	up-regulation	greatly reduced	significantly reduced	significantly reduced	down-regulation
